How the values were obtained:
Format in all cases: in vivo
kochia (Kochia scoparia) [1] = assay: Test A postemergence, visual injury rating; conditions: 0 is no effect, 100 is complete control
Procedure, shortened: (§1)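 Greenhouse pot test, loam/sand soil. Formulation: non-phytotoxic solvent mix plus surfactant. Pre: directed spray onto soil after sowing. Post: plants at 1–2 leaf, 2–10 cm. Rated visually vs untreated controls at ~10 d, 0 (no effect) to 100 (complete control).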

[2] = test system: galium (catchweed bedstraw, Galium aparine); assay: Test A postemergence, visual injury rating; conditions: 0 is no effect, 100 is complete control
Procedure, shortened: as §1

[3] = test system: blackgrass (Alopecurus myosuroides); assay: Test A postemergence, visual injury rating; conditions: 0 is no effect, 100 is complete control
Procedure, shortened: as §1

[4] = test system: wheat (Triticum aestivum); assay: Test A postemergence, visual injury rating; conditions: 0 is no effect, 100 is complete control
Procedure, shortened: as §1

[5] = test system: giant foxtail (Setaria faberii); assay: Test A postemergence, visual injury rating; conditions: 0 is no effect, 100 is complete control
Procedure, shortened: as §1

[6] = test system: pigweed (Amaranthus retroflexus); assay: Test A postemergence, visual injury rating; conditions: 0 is no effect, 100 is complete control
Procedure, shortened: as §1

[7] = test system: barnyardgrass (Echinochloa crus-galli); assay: Test A postemergence, visual injury rating; conditions: 0 is no effect, 100 is complete control
Procedure, shortened: as §1

[8] = test system: Italian ryegrass (Lolium multiflorum); assay: Test A postemergence, visual injury rating; conditions: 0 is no effect, 100 is complete control
Procedure, shortened: as §1

corn (Zea mays) = assay: Test A postemergence, visual injury rating; conditions: 0 is no effect, 100 is complete control
Procedure, shortened: as §1

[9] = test system: ragweed (common ragweed, Ambrosia elatior); assay: Test A postemergence, visual injury rating; conditions: 0 is no effect, 100 is complete control
Procedure, shortened: as §1

kochia (Kochia scoparia) [10] = assay: Test A preemergence, visual injury rating; conditions: 0 to 100 scale (0 no effect, 100 complete control)
Procedure, shortened: as §1

[11] = test system: giant foxtail (Setaria faberii); assay: Test A preemergence, visual injury rating; conditions: 0 to 100 scale (0 no effect, 100 complete control)
Procedure, shortened: as §1

[12] = test system: pigweed (Amaranthus retroflexus); assay: Test A preemergence, visual injury rating; conditions: 0 to 100 scale (0 no effect, 100 complete control)
Procedure, shortened: as §1

[13] = test system: barnyardgrass (Echinochloa crus-galli); assay: Test A preemergence, visual injury rating; conditions: 0 to 100 scale (0 no effect, 100 complete control)
Procedure, shortened: as §1

[14] = test system: Italian ryegrass (Lolium multiflorum); assay: Test A preemergence, visual injury rating; conditions: 0 to 100 scale (0 no effect, 100 complete control)
Procedure, shortened: as §1

[15] = test system: ragweed (common ragweed, Ambrosia elatior); assay: Test A preemergence, visual injury rating; conditions: 500 g ai/ha, 0 to 100 scale (0 no effect, 100 complete control)
Procedure, shortened: as §1

N#CCCOC(=O)c1c(Br)cccc1Oc1ncc(Cl)cn1 [Compound 7]
20: Wheat plant response rating (0 to 100 scale) ([4]; 500 g ai/ha) | Ryegrass, Italian plant response rating (0 to 100 scale) ([8]; 125 g ai/ha)
70: Ryegrass, Italian plant response rating (0 to 100 scale) ([8]; 500 g ai/ha) | Corn plant response rating (0 to 100 scale) (corn (Zea mays); 500 g ai/ha)
0: Wheat plant response rating (0 to 100 scale) ([4]; 125 g ai/ha) | Ryegrass, Italian plant response rating ([14]; 125 g ai/ha)
90: Barnyardgrass plant response rating (0 to 100 scale) ([7]; 500 g ai/ha) | Ragweed plant response rating (0 to 100 scale) ([9]; 500 g ai/ha) | Foxtail, Giant plant response rating ([11]; 125 g ai/ha)
30: Blackgrass plant response rating (0 to 100 scale) ([3]; 125 g ai/ha) | Barnyardgrass plant response rating (0 to 100 scale) ([7]; 125 g ai/ha) | Ryegrass, Italian plant response rating ([14]; 500 g ai/ha)
50: Foxtail, Giant plant response rating (0 to 100 scale) ([5]; 125 g ai/ha) | Kochia plant response rating (kochia (Kochia scoparia) [10]; 125 g ai/ha) | Barnyardgrass plant response rating ([13]; 125 g ai/ha) | Ragweed plant response rating [15]
10: Corn plant response rating (0 to 100 scale) (corn (Zea mays); 125 g ai/ha)
40: Ragweed plant response rating (0 to 100 scale) ([9]; 125 g ai/ha)
100: Kochia plant response rating (0 to 100 scale) (kochia (Kochia scoparia) [1]; 125 g ai/ha) | Kochia plant response rating (0 to 100 scale) (kochia (Kochia scoparia) [1]; 500 g ai/ha) | Galium plant response rating (0 to 100 scale) ([2]; 125 g ai/ha) | Galium plant response rating (0 to 100 scale) ([2]; 500 g ai/ha) | Foxtail, Giant plant response rating (0 to 100 scale) ([5]; 500 g ai/ha) | Pigweed plant response rating (0 to 100 scale) ([6]; 125 g ai/ha) | Pigweed plant response rating (0 to 100 scale) ([6]; 500 g ai/ha) | Kochia plant response rating (kochia (Kochia scoparia) [10]; 500 g ai/ha) | Foxtail, Giant plant response rating ([11]; 500 g ai/ha) | Pigweed plant response rating ([12]; 125 g ai/ha) | Pigweed plant response rating ([12]; 500 g ai/ha) | Barnyardgrass plant response rating ([13]; 500 g ai/ha)
80: Blackgrass plant response rating (0 to 100 scale) ([3]; 500 g ai/ha)
